The values below are quoted from earlier work in US8420830B2, “Macrocyclic factor VIIa inhibitors useful as anticoagulants” (Bristol-Myers Squibb Company, priority 2006, dated 2013).

What all share (conditions): cited from earlier work
Data set [1] deals with patients undergoing coronary angioplasty.
The subject of data set [2] is patients undergoing total knee replacement.
For data set [3], the system named is patients with acute coronary syndromes.

As to “recombinant nematode anticoagulant protein c2 [rNAPc2]”, in data set [1], the systemic thrombin generation entry is on record as “reduces systemic thrombin generation”. Further, the deep vein thrombosis entry in data set [2] is “prevents deep vein thrombosis”. Further, in data set [3], the “magnitude and duration of ischemic events” value is “reduces magnitude and duration of ischemic events”.
